According to patent US11965034B2, “Antifibrotic activity of CD47 blockade in the liver” (The Board of Trustees of the Leland Stanford Junior …, priority 2017, dated 2024):

Legend:
[1] = test system: c-Jun-induced migration of bone marrow-derived stromal cells; assay: Transwell migration assay of c-Jun-induced bone marrow-derived stromal cells (in vitro inhibitory screen); type: cell-based, mouse; settings: bone marrow-derived stromal cells from c-Jun-inducible mice, dox induced
Source text: Functional evaluation of signaling pathways mediating the fibrogenic response. We next wished to assess the functional relevance of the signaling pathway rewiring induced by transcriptional activation of c-Jun. To enable systematic pharmacological interrogation we sought to develop a c-Jun-dependent in vitro assay. We assessed two cell biological parameters in cultured bone marrow-derived stromal cells from c-Jun-inducible mice. First, we assessed cell growth and observed a shortening of the cell doubling time from about […] in control to about 2 days in c-Jun-induced fibroblasts (FIG. 6A). Second, we measured cell migration of bone marrow-derived stromal cells in a transwell migration assay as a functional readout of the c-Jun induction and observed a 100-fold increase in migration at 2 hours and a 1000-fold increase at 24 hours in c-Jun induced cells versus uninduced cells (FIG. 6B).
Given its much greater dynamic range, we then tested a series of small molecule inhibitors in the transwell migration assay. […]
Transwell migration and proliferation assays. For transwell migration assays Costar transwell chambers were used according to the manufacturer's directions and transmigrated adherent cells were fixed and stained and counted by microscopy after periods of 2 hrs and 24 hrs. […]

[2] = test system: c-Jun induced mice (bone marrow and skin fibrosis); assay: Systemic c-Jun induced bone marrow and skin fibrosis in vivo; set-up: species or system mouse; settings: systemic c-Jun induction, drug i.p.
Source text: Blockade of the VEGF and PI3K pathways reverse marrow and skin fibrosis in vivo. Encouraged by these findings, we sought to evaluate the efficacy of blocking the PI3K-AKT pathway in c-Jun mediated fibrosis in vivo. Wortmannin, a potent PI3K inhibitor, was systemically administered to mice for 14 days that were induced to express c-Jun two days prior to drug. […] Any effects on gastroesophageal or bladder were not assessed as the fibrosis in these organs takes longer to develop. Both Rosa26-rtTA control mice were treated with dox and c-Jun-inducible mice were treated with PBS. No fibrosis developed in either control condition in lung or other organs over the same time span. Thus, the PI3K and VEGFR pathways are critical mediators of c-Jun-induced fibrosis in mice and may be also involved in the development of human fibrosing conditions.
Tissue processing. Animals were sacrificed at times indicated based on an APLAC-approved protocol that includes assessment of morbidity by >10% loss of weight, scruffy appearance and lethargy. […] Images were analyzed in Adobe Photoshop (Adobe Systems, San Jose, CA). […] Flow cytometry was performed on a FACS Aria cytometer (BD Biosciences, San Jose, CA), at least 10,000 events were acquired, and data were analyzed using FlowJo software. […]

In the case of CCN(CC)CCCCNc1ncc2cc(-c3cc(OC)cc(OC)c3)c(NC(=O)NC(C)(C)C)nc2n1 [PD173074], the c-Jun-induced migration [1] is reported as “abolish”, the bone marrow fibrosis [2] is reported as “significantly decreased” and the “skin fibrosis (dermal skin thickening and collagen deposition)” value [2] is reported as “but not skin fibrosis”.
